Results on 3 compounds are retold here after patent US8084605B2, “Polymorphs of succinate salt of 2-[6-(3-amino-piperidin-1-yl)-3-methyl-2,4-dioxo-3,4-dihydro-2H-pyrimidin-1-ylmethy]-4-fluor-benzonitrile and methods of use therefor” (priority 2006, dated 2011).

What all share (format): physicochemical
Series [1] can be described thus: Moisture sorption/desorption analysis. Here is the method: Moisture sorption/desorption data were collected on a VTI SGA-100 Vapor Sorption Analyzer. Sorption and desorption data were collected over a range of 5% to 95% relative humidity (RH) at 10% RH intervals under a nitrogen purge. Samples were not dried prior to analysis. Equilibrium criteria used for analysis were less than 0.0100% weight change in 5 minutes, with a maximum equilibration time of 3 hours if the weight criterion was not met. Data were not corrected for the initial moisture content of the samples. NaCl and PVP were used as calibration standards. Moisture sorption and desorption study was conducted on a sample of Form A+B. The sample was prepared by crashed cooling crystallization (Example 3, section A.6) of the polymorphic forms from a ethanol:water (95:5) solution of Compound I. The moisture sorption and desorption study was conducted according to the procedures outlined in Example 3, section B. 10. The data collected is plotted in FIG. 13 and summarized in Table L. Moisture sorption and desorption study was conducted on a sample of Form E. The sample was prepared by solvent/antisolvent crystallization (Example 3, section A.7) by the addition of acetonitrile to Compound I in water. The moisture sorption and desorption study was conducted according to the procedures outlined in Example 3, section B. 10. The data collected is plotted in FIG. 23 and summarized in Table M. Moisture sorption and desorption study was conducted on a sample of Amorphous Form. The sample was prepared by lyophilolization of a solution of Compound I in water (Example 3, section A.9). The moisture sorption and desorption study was conducted according to the procedures outlined in Example 3, section B. 10.

A short description of series [2]: Approximate solubility of Compound I in different solvents. As to conditions: most solvents, with the exceptions of DMF, methanol, TFE, water and water:solvent mixtures. Here is the method:
Compound I prepared by the method described in Example 1 was used for the solubility study. Solvents and other reagents were of ACS or HPLC grade and were used as received.
A weighed sample (typically about 20-25 mg) of Compound I was treated at ambient temperature with aliquots (typically ≧50 μL) of the test solvent with sonication between additions. Solvents were either reagent or HPLC grade. Solubility was estimated from the total volume of solvent used to obtain a clear solution, as determined by visual inspection. Solubility is expressed as “less than” when dissolution was not observed. If dissolution occurred after the last aliquot was added then solubility is expressed as “greater than or equal to” (≧). The actual solubilities may be greater than determined, due to over addition of solvent (large aliquots) or slow dissolution rates. Approximate solubilities of Compound I are summarized in Table A. The solubility values have been rounded to the nearest whole number and are reported to the nearest mg/mL.

Series [3] in a line: Relative humidity stressing experiments (form by XRPD). As to conditions: for Form by XRPD after relative humidity stressing: 29 days. From the text:
Samples of Compound I were placed uncovered in approximately 58%, 88%, and 97% relative humidity jars. The samples were stored in the jars for approximately 8 days. The solids were collected and analyzed by XRPD for form identification. Aliquots of Form A of Compound I were stored under approximately 50% and 97% relative humidity for 29 days. An aliquot of a mixture of Form A+B was stressed at 88% relative humidity for 23 days. Amorphous Form was stressed at 58% and 88% relative humidity for 23 days.

On to `Cn1c(=O)cc(N2CCC[C@@H](N)C2)n(Cc2ccccc2C#N)c1=O.O=C(O)CCC(=O)O` [Amorphous Form], for which the “Weight lost during sorption” value in series [1] (at 75% relative humidity) was “Approximately 7%”.

As to `Cn1c(=O)cc(N2CCC[C@@H](N)C2)n(Cc2cc(F)ccc2C#N)c1=O` [Compound I, 2-[6-(3-amino-piperidin-1-yl)-3-methyl-2,4-dioxo-3,4-dihydro-2H-pyrimidin-1-ylmethyl]-4-fluoro-benzonitrile succinate], the “XRPD Form post MB” value in series [1] (lyophilized sample from H2O solution) is recorded as “low crystallinity A”; in series [1] (sample crystallized from H2O/ACN), “A + small quantity of E”; in series [1] (sample prepared by CC from EtOH:H2O (95:5)), “A + B”. In series [2], the “Solubility (in words)” value is reported as “Poor solubility”.

`Cn1c(=O)cc(N2CCC[C@@H](N)C2)n(Cc2cc(F)ccc2C#N)c1=O.O=C(O)CCC(=O)O` [Form A]: the “Stability (conclusion from characterization data)” value in series [3] (ambient conditions) is on record as “stable at ambient conditions”. Besides, the “Form by XRPD after relative humidity stressing” value in series [3] (approximately 50% and 97% relative humidity) was “Form A”; in series [3] (approximately 58% and 97% relative humidity) it was “did not exhibit form changes”.
